Patent US7598258B2, “Quinoline derivatives and quinazoline derivatives inhibiting autophosphorylation of macrophage colony stimulating factor receptor” (Kirin Beer Kabushiki Kaisha, priority 2002, dated 2009)

Target: T1, mouse c-fms (Mus musculus, UniProt P09581)
T1 construct: Macrophage-like cell line BAC-1.2F5 which expresses c-fms as a M-CSF receptor on cell membranes; endogenous in cells; host or cells: BAC-1.2F5 mouse macrophage-like cell line
T1 sequence (P09581 20-977): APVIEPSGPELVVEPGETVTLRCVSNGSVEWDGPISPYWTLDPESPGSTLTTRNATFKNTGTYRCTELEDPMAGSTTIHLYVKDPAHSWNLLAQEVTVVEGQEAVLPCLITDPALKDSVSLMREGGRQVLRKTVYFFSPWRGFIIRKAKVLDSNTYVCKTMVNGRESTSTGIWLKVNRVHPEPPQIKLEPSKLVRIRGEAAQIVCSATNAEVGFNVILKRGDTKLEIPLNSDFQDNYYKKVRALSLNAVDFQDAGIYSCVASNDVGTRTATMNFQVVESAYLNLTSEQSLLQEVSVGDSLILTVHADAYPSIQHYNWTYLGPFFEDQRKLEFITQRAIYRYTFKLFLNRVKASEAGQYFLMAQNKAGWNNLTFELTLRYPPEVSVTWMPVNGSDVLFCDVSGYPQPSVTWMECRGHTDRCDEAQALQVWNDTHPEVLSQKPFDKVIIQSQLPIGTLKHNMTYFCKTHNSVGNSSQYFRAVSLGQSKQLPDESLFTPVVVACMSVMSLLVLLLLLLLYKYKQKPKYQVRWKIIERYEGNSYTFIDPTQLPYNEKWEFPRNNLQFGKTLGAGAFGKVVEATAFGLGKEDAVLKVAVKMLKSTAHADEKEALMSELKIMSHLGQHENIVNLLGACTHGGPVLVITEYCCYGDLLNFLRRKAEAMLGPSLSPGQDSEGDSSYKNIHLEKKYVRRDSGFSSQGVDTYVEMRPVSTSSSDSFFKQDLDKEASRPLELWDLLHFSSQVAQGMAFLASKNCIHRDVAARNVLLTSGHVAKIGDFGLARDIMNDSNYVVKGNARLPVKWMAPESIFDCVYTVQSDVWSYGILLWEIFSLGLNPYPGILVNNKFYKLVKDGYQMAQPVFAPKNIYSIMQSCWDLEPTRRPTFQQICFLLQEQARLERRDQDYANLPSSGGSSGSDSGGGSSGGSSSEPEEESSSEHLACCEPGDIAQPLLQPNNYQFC
Assay: Inhibition of c-fms autophosphorylation in macrophage-like cell line BAC-1.2F5 by M-CSF stimulation (ELISA)
Format: cell-based
Conditions: BAC-1.2F5 cells, human recombinant M-CSF 50 ng/ml, read-out: c-fms autophosphorylation 50% inhibitory concentration (IC50)
Method in brief: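 BAC-1.2F5 cells serum-starved (0.1% FCS) 12 h, preincubated with compound 1 h at 37° C, then stimulated 6 min with 50 ng/ml human recombinant M-CSF. Lysates captured on anti-phosphotyrosine plates, detected with anti-c-fms antiserum and peroxidase read-out at 450 nm. IC50 from inhibition normalised between ±M-CSF controls.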

| SMILES | IC50 |
| --- | --- |
| COc1cc2nccc(Oc3ccc(NC(=O)N[C@H](C)c4cccc(Br)c4)c(C(F)(F)F)c3)c2cc1OC [Example 60, N-[(1R)-1-(3-Bromophenyl)ethyl]-N′-[4-[(6,7-dimethoxy-4-quinolyl)oxy]-2-(trifluoromethyl)phenyl]urea] | 115 nM |
| COc1cc2nccc(Oc3ccc(NC(=O)N[C@@H](C)c4ccc(F)cc4)cc3OC)c2cc1OC [Example 23, N-{4-[(6,7-Dimethoxy-4-quinolyl)oxy]-3-methoxyphenyl}-N′-[(1S)-1-(4-fluorophenyl)ethyl]urea] | 10.2 nM |
| COc1cc(Oc2ccnc3cc(OC)c(OC)cc23)ccc1NC(=O)NC(C)c1nc(C)c(C)s1 (stereo not drawn) [Example 99, N-{4-[(6,7-Dimethoxy-4-quinolyl)oxy]-2-methoxyphenyl}-N′-[1-(4,5-dimethyl-1,3-thiazol-2-yl)ethyl]urea] | 12.6 nM |
| COc1cc2nccc(Oc3ccc(NC(=O)NC(C)c4ncc(C)s4)cc3F)c2cc1OC (stereo not drawn) [Example 102, N-{4-[(6,7-Dimethoxy-4-quinolyl)oxy]-3-fluorophenyl}-N′-[1-(5-methyl-1,3-thiazol-2-yl)ethyl]urea] | 20.3 nM |
| COc1cc2nccc(Oc3ccc(NC(=O)N[C@H](C)c4cccc(Br)c4)c(F)c3)c2cc1OC [Example 63, N-[(1R)-1-(3-Bromophenyl)ethyl]-N′-{4-[(6,7-dimethoxy-4-quinolyl)oxy]-2-fluorophenyl}urea] | 30.9 nM |
| COc1cc2nccc(Oc3ccc(NC(=O)N[C@H](C)c4nccs4)c(C(F)(F)F)c3)c2cc1OC [Example 85, N-[4-[(6,7-Dimethoxy-4-quinolyl)oxy]-2-(trifluoromethyl)phenyl]-N′-[(1R)-1-(1,3-thiazol-2-yl)ethyl]urea] | 17.4 nM |
| COc1cc2nccc(Oc3ccc(NC(=O)NC(C)c4ccc(F)cc4)c(C)c3C)c2cc1OC (stereo not drawn) [Example 25, N-{4-[(6,7-Dimethoxy-4-quinolyl)oxy]-2,3-dimethylphenyl}-N′-[1-(4-fluorophenyl)ethyl]urea] | 21.9 nM |
| COc1cc2nccc(Oc3ccc(NC(=O)NC(C)c4ncc(C)s4)c(C(F)(F)F)c3)c2cc1OC (stereo not drawn) [Example 104, N-[4-[(6,7-Dimethoxy-4-quinolyl)oxy]-2-(trifluoromethyl)phenyl]-N′-[1-(5-methyl-1,3-thiazol-2-yl)ethyl]urea] | 22 nM |
| COc1cc(Oc2ccnc3cc(OC)c(OC)cc23)ccc1NC(=O)N[C@H](C)c1cccc(Br)c1 [Example 59, N-[(1R)-1-(3-Bromophenyl)ethyl]-N′-{4-[(6,7-dimethoxy-4-quinolyl)oxy]-2-methoxyphenyl}urea] | 20.3 nM |
| COc1cc2c(Oc3ccc(NC(=O)NC(C)c4ccc(F)cc4F)cc3F)ccnc2cc1OCCCN1CCOCC1 (stereo not drawn) [Example 66, N-[1-(2,4-Difluorophenyl)ethyl]-N′-(3-fluoro-4-{[6-methoxy-7-(3-morpholinopropoxy)-4-quinolyl]oxy}phenyl)urea] | 14.7 nM |
| COc1cc2c(Oc3ccc(NC(=O)NC(C)c4ccc(F)c(F)c4)cc3F)ccnc2cc1OCCCN1CCOCC1 (stereo not drawn) [Example 65, N-[1-(3,4-Difluorophenyl)ethyl]-N′-(3-fluoro-4-{[6-methoxy-7-(3-morpholinopropoxy)-4-quinolyl]oxy}phenyl)urea] | 13.9 nM |
| COc1cc2nccc(Oc3cc(C)c(NC(=O)N[C@@H](C)c4nccs4)cc3C)c2cc1OC [Example 86, N-{4-[(6,7-Dimethoxy-4-quinolyl)oxy]-2,5-dimethylphenyl}-N′-[(1S)-1-(1,3-thiazol-2-yl)ethyl]urea] | 12.5 nM |
| COc1cc2nccc(Oc3cc(C)c(NC(=O)N[C@H](C)c4cccc(Br)c4)cc3C)c2cc1OC [Example 56, N-[(1R)-1-(3-Bromophenyl)ethyl]-N′-{4-[(6,7-dimethoxy-4-quinolyl)oxy]-2,5-dimethylphenyl}urea] | 193 nM |
| COc1cc2nccc(Oc3cc(C)c(NC(=O)NC(C)c4nc(C)cs4)cc3C)c2cc1OC (stereo not drawn) [Example 93, N-{4-[(6,7-Dimethoxy-4-quinolyl)oxy]-2,5-dimethylphenyl}-N′-[1-(4-methyl-1,3-thiazol-2-yl)ethyl]urea] | 38.6 nM |

These reach a lower IC50. Values come first.

| IC50 | SMILES |
| --- | --- |
| 9.8 nM | COc1cc2nccc(Oc3ccc(NC(=O)N[C@H](C)c4ccc(F)cc4)c(C(F)(F)F)c3)c2cc1OC [Example 21, N-[4-[(6,7-Dimethoxy-4-quinolyl)oxy]-2-(trifluoromethyl)phenyl]-N′-[(1R)-1-(4-fluorophenyl)ethyl]urea] |
| 9.4 nM | COc1cc2c(Oc3ccc(NC(=O)NC(C)c4ccc(F)cc4)cc3F)ccnc2cc1OCCCN1CCOCC1 (stereo not drawn) [Example 64, N-(3-Fluoro-4-{[6-methoxy-7-(3-morpholinopropoxy)-4-quinolyl]oxy}phenyl)-N′-[1-(4-fluorophenyl)ethyl]urea] |
| 8.9 nM | COc1cc2nccc(Oc3ccc(NC(=O)N[C@H](C)c4nccs4)cc3OC)c2cc1OC [Example 82, N-{4-[(6,7-Dimethoxy-4-quinolyl)oxy]-3-methoxyphenyl}-N′-[(1R)-1-(1,3-thiazol-2-yl)ethyl]urea] |
| 8.4 nM | COc1cc2nccc(Oc3ccc(NC(=O)NC(C)c4nc(C)cs4)c(C(F)(F)F)c3)c2cc1OC (stereo not drawn) [Example 92, N-[4-[(6,7-Dimethoxy-4-quinolyl)oxy]-2-(trifluoromethyl)phenyl]-N′-[1-(4-methyl-1,3-thiazol-2-yl)ethyl]urea] |
| 8.1 nM | COc1cc2nccc(Oc3ccc(NC(=O)NC(C)c4ccc(F)cc4)c(C(F)(F)F)c3)c2cc1OC (stereo not drawn) [Example 19, N-[4-[(6,7-Dimethoxy-4-quinolyl)oxy]-2-(trifluoromethyl)phenyl]-N′-[1-(4-fluorophenyl)ethyl]urea] |
| 6.9 nM | COc1cc2nccc(Oc3ccc(NC(=O)N[C@H](C)c4nccs4)cc3)c2cc1OC [Example 79, N-{4-[(6,7-Dimethoxy-4-quinolyl)oxy]phenyl}-N′-[(1R)-1-(1,3-thiazol-2-yl)ethyl]urea] |
| 6.5 nM | COc1cc2nccc(Oc3ccc(NC(=O)NC(C)c4ccc(F)cc4)c(F)c3)c2cc1OC (stereo not drawn) [Example 28, N-{4-[(6,7-Dimethoxy-4-quinolyl)oxy]-2-fluorophenyl}-N′-[1-(4-fluorophenyl)ethyl]urea] |
| 5.7 nM | COc1cc2c(Oc3ccc(NC(=O)NC(C)c4ccc(F)cc4)c(F)c3)ccnc2cc1OCCCN1CCOCC1 (stereo not drawn) [Example 67, N-(2-Fluoro-4-{[6-methoxy-7-(3-morpholinopropoxy)-4-quinolyl]oxy}phenyl)-N′-[1-(4-fluorophenyl)ethyl]urea] |
| 5.7 nM | COc1cc2nccc(Oc3ccc(NC(=O)N[C@H](C)c4ccc(F)cc4)c(C)c3)c2cc1OC [Example 15, N-{4-[(6,7-Dimethoxy-4-quinolyl)oxy]-2-methylphenyl}-N′-[(1R)-1-(4-fluorophenyl)ethyl]urea] |
| 3.9 nM | COc1cc(Oc2ccnc3cc(OC)c(OC)cc23)ccc1NC(=O)N[C@@H](C)c1ccc(F)cc1 [Example 17, N-{4-[(6,7-Dimethoxy-4-quinolyl)oxy]-2-methoxyphenyl}-N′-[(1S)-1-(4-fluorophenyl)ethyl]urea] |
| 3.5 nM | COc1cc2nccc(Oc3ccc(NC(=O)N[C@@H](C)c4ccc(F)cc4)cc3F)c2cc1OC [Example 32, N-{4-[(6,7-Dimethoxy-4-quinolyl)oxy]-3-fluorophenyl}-N′-[(1S)-1-(4-fluorophenyl)ethyl]urea] |
| 3 nM | COc1cc2nccc(Oc3ccc(NC(=O)NC(C)c4nccs4)cc3F)c2cc1OC (stereo not drawn) [Example 73, N-{4-[(6,7-Dimethoxy-4-quinolyl)oxy]-3-fluorophenyl}-N′-[1-(1,3-thiazol-2-yl)ethyl]urea] |
| 3 nM | COc1cc2nccc(Oc3ccc(NC(=O)N[C@@H](C)c4nccs4)c(F)c3)c2cc1OC [Example 71, N-{4-[(6,7-Dimethoxy-4-quinolyl)oxy]-2-fluorophenyl}-N′-[(1S)-1-(1,3-thiazol-2-yl)ethyl]urea] |
| 2.9 nM | COc1cc2nccc(Oc3ccc(NC(=O)NC(C)c4nc(C)cs4)c(F)c3)c2cc1OC (stereo not drawn) [Example 88, N-{4-[(6,7-Dimethoxy-4-quinolyl)oxy]-2-fluorophenyl}-N′-[1-(4-methyl-1,3-thiazol-2-yl)ethyl]urea] |
| 2.3 nM | COc1cc2nccc(Oc3ccc(NC(=O)N[C@@H](C)c4ccc(F)cc4)c(F)c3)c2cc1OC [Example 29, N-{4-[(6,7-Dimethoxy-4-quinolyl)oxy]-2-fluorophenyl}-N′-[(1S)-1-(4-fluorophenyl)ethyl]urea] |
| 2 nM | COc1cc(Oc2ccnc3cc(OC)c(OC)cc23)ccc1NC(=O)NC(C)c1ccc(F)cc1 (stereo not drawn) [Example 16, N-{4-[(6,7-Dimethoxy-4-quinolyl)oxy]-2-methoxyphenyl}-N′-[1-(4-fluorophenyl)ethyl]urea] |
